This note sets out measurements from patent publication US20180332847A1, “ANTIMICROBIAL METAL CARBOXYLATE-BENZISOTHIAZOLINONE MIXTURES” (Troy Corporation, priority 2017, published 2018).

Each structure is given as a SMILES string. Where “and” joins values, the source holds several entries; their conditions need not be identical. Equal entries are not always repeated.

Common to all, as to assay type: cell-based
One test relates to Candida albicans. The test is described as follows: Minimum Inhibitory Concentration (MIC) by spiral plater / spiral gradient endpoint against Candida albicans. As for the experimental part:
(§1) Synergistic Index=Qa/QA+Qb/QB [Equation No. 1] • where Qa=the quantity of component A used in a binary mixture that gives the desired effect • QA=the quantity of component A which when used alone gives the desired effect • Qb=the quantity of component B used in a binary mixture that gives the desired effect • QB=the quantity of component B which when used alone gives the desired effect
(§2) Minimum Inhibitory Concentration (“MIC”) for each of the antimicrobial compositions was determined against a test microbe, which in this case was a spore suspension of the fungus Alternaria alternata, with the aid of an Autoplate 4000 spiral plater that is commercially available from Spiral Biotech, Inc., Norwood, Mass., and its accompanying spiral gradient endpoint software (hereinafter referred to as “the SGE software”). The spiral plater automates the normal serial dilution method for determining MICs. Although the details of the SGE software are held confidentially by Spiral Biotech, Inc., they are believed to consistent with the principles set forth in “Measurement of MICs of antibacterial agents by spiral gradient endpoint compared with conventional dilution method” J. H. Paton, H. A. Holt, and M. J. Bywater—Int. J. Exp. Clin. Chemother, 1990.
(§3) The spiral plater automatically applied 54.3 micro-liters of each antimicrobial composition of interest to the surface of 150 millimeter malt agar plates using an exponential application gradient. The concentration of the antimicrobial concentration was greatest near the center of the Petri plates and decreased toward the edges. Antimicrobial composition gradients were allowed to air dry at room temperature for 1 to 4 hours at 23° C. before inoculation with test microbe. Spiral gradient plates were inoculated by streaking with cotton swabs that had been soaked in test microbe spore suspension. Streaks were applied in a radial pattern, using a paper template generated by the SGE software to guide the application. Eight radii were inoculated per Petri plate. Each radius is considered as one replicated observation.
(§4) Inoculated spiral gradient plates were incubated for 48 hours in an incubator at 28° C. Visible growth of the test microbe developed along the radial streaks and ended where the concentration of the antimicrobial composition was sufficient to prevent growth. This growth endpoint value (expressed in mm as measured from center point of the Petri plate) was used to calculate MIC for the mixture, expressed as parts per million.
Utilizing the procedure described above in Example, Minimum Inhibitory Concentration (“MIC”) for each of the antimicrobial compositions was determined against a test microbe, which in this case was a spore suspension of the yeast Candida albicans., as described above in Example 1. Several antimicrobial compositions containing calcium gluconate, BIT, or both in water were investigated, as shown below in Table 3
Utilizing the procedure described above in Example 1, Minimum Inhibitory Concentration (“MIC”) for each of the antimicrobial compositions was determined against a test microbe, which in this case was a spore suspension of the yeast Candida albicans. Several antimicrobial compositions containing calcium glycerate, BIT, or both in water were investigated, as shown below in Table 11.
Utilizing the procedure described above in Example 1, Minimum Inhibitory Concentration (“MIC”) for antimicrobial compositions was determined against a test microbe, which in this case was a spore suspension of the yeast Candida albicans. Several antimicrobial compositions containing calcium glycerate, BIT, or both in water were investigated, as shown below in Table 23.
Utilizing the procedure described above in Example 1, Minimum Inhibitory Concentration (“MIC”) for each of the antimicrobial compositions was determined against a test microbe, which in this case was a spore suspension of the fungus Candida Albicans.

Another test concerns Escherichia coli. Kind of test: Minimum Inhibitory Concentration (MIC) by spiral plater / spiral gradient endpoint against Escherichia coli. As for the experimental part:
as §1, §2
The spiral plater automatically applied 54.3 micro-liters of each antimicrobial composition of interest to the surface of 150 millimeter malt agar plates using an exponential application gradient. The concentration of the antimicrobial concentration was greatest near the center of the Petri plates and decreased toward the edges. […]
Inoculated spiral gradient plates were incubated for 48 hours in an incubator at 28° C. […] This growth endpoint value (expressed in mm as measured from center point of the Petri plate) was used to calculate MIC for the mixture, expressed as parts per million.
Utilizing the experimental procedure described above in Example 1, the MIC against Escherichia coli of several antibacterial compositions containing zinc gluconate, BIT, or both in water were determined.

The next test deals with Alternaria alternata. Kind of test: Minimum Inhibitory Concentration (MIC) by spiral plater / spiral gradient endpoint against Alternaria alternata. As for the experimental part:
as §1, §2
Spore suspensions for the test microbe were prepared by growing Alternaria alternata on a Difco malt agar slant in an incubator for 1 week at 28° C. Spores were loosened by adding a small amount of buffer solution at pH 7.0 and scraping with a sterile nichrome wire loop. This process was repeated twice. The buffer solution included phosphate buffer and magnesium chloride, and was obtained commercially from Thomas Scientific Company, as Lot #023-0703.
Loosened spores were removed from the slant by aseptically pouring them into a sterile bottle containing 30 ml of the buffer solution and a volume of approximately 40 ml of 6 mm diameter borosilicate glass beads. The bead bottle was shaken to disperse the spores and adjusted to a final liquid volume of 50 ml. For use as a test inoculum, spore density was adjusted in distilled water blanks to that of a 0.5 McFarland nephelometer standard.
as §3, §4
Utilizing the procedure described above in Example 1, Minimum Inhibitory Concentration (“MIC”) for each of the antimicrobial compositions was determined against a test microbe, which in this case was a spore suspension of the […] Alternaria alternata.

`O=c1[nH]sc2ccccc12` [BIT, 1,2-benzisothiazol-3(2H)-one]: the QB in the test on Candida albicans (MIC of BIT alone for Candida albicans (average of Trials 1, 2), used for SI (zinc ethylhexanoate series)) was 19 ppm; with Candida albicans (MIC of BIT alone for Candida albicans, used for SI (zinc glycerate series)), 13 ppm and 16 ppm; with Candida albicans (quantity of BIT used alone that gives the desired effect, calcium gluconate-BIT series, Candida albicans), 23 ppm; with Candida albicans (quantity of BIT used alone that gives the desired effect, calcium glycerate-BIT series, Candida albicans), 85 ppm; in the test with Escherichia coli (MIC of BIT alone for Escherichia coli (average of Trials 1, 2), used for SI) it was 136 ppm; with Alternaria alternata (MIC of BIT alone for Alternaria alternata, used for SI (zinc ethylhexanoate series)) it was 13 ppm. Further, the QB with Alternaria alternata (MIC of BIT alone for Alternaria alternata, used for SI (zinc glycerate series)) worked out at 8.3 ppm; in the test with Alternaria alternata (quantity of BIT used alone that gives the desired effect, calcium ethylhexanoate-BIT series, Alternaria alternata) it was 13 ppm; with Alternaria alternata (quantity of BIT used alone that gives the desired effect, calcium gluconate-BIT series, Alternaria alternata), 13 ppm; with Alternaria alternata (quantity of BIT used alone that gives the desired effect, calcium glycerate-BIT series, Alternaria alternata), 85 ppm. The “ppm of BIT alone providing the same inhibition” value was determined as 19 ppm in the test with Candida albicans (zinc ethylhexanoate-BIT series, Candida albicans); 13 ppm in the test on Candida albicans (zinc glycerate-BIT series, Candida albicans); 136 ppm in the test with Escherichia coli (zinc gluconate-BIT series, Escherichia coli); 13 ppm in the test with Alternaria alternata (zinc ethylhexanoate-BIT series, Alternaria alternata); 8.3 ppm in the test with Alternaria alternata (zinc glycerate-BIT series, Alternaria alternata).
